Test results as given in patent US4740518A, “4H-benzo(4,5)cyclohepta(1,2-B)thiophene derivatives” (Sandoz Ltd., priority 1983, dated 1988).

What was measured:
[1] = Yeast-induced fever test in the rat (Test B); format: in vivo, male rats (Sprague-Dawley); details: for ED50: Rattus norvegicus, read-out: Yeast fever ED50
Protocol: For this test male rats (Sprague-Dawley) of 130-180 g are fasted overnight. Body temperature is measured the following morning using a thermistor rectal probe connected to a telethermometer. 1 ml/100 g body weight of a 15% suspension of dried baker's yeast in saline is then injected s.c.. Body temperature is measured 2 hours later and this value taken as the initial temperature. 6 hours after yeast injection the test animals receive an oral dosage of the test substance suspended in 0.5% tragacanth or tragacanth alone (control). Body temperature is again measured after a further 2 hours.
Increase in temperature for each rat is calculated and expressed as a % of average increase determined in the control group (ca. 2.3° C. above normal). The ED50, estimated by regression analysis, is taken as the dosage at which increase in rectal temperature is 50% of that in the control group. Compounds of the invention, e.g. compounds of formula I, are active in this test at dosages of from 15 to 60 mg/kg.

[2] = Arthritis pain test in the rat (Test C); format: in vivo, male rats (OFA); details: for ED50: Rattus norvegicus, read-out: Arthritis pain ED50
Protocol: For this test male rats (OFA) of 110-120 g are treated with 0.1 ml of a Mycobacterium butyricum suspension in paraffin oil (0.6 mg Mycobact./0.1 ml oil) injected i.c. into the tail root. Marked arthritis in the hind-paws develops ca. 12 days after treatment. 30 mins. before administration of test-substance, control measurement is performed by flexing the foot joint of the right or left hind-paw using a Statham transducer until vocalisation occurs. […] Test substance is administered orally and the flexion procedure repeated 1,3 and 5 hours subsequently. The pressure at which vocalisation occurs is noted, the value recorded for each rat at each interval being the average value of three successive measurements. Animals in which the vocalisation threshold is doubled with respect to the control measurement are considered to be protected. The ED50 estimated for each post-treatment time according to the Probit method is taken as the dosage at which 50% of animals are protected. Compounds of the invention, e.g. compounds of formula I, are active in this test at dosages of from 3.2 to 100 mg/kg.

[3] = Adjuvant arthritis test in the rat (Test A); format: in vivo; details: for ED50: Rattus norvegicus
Protocol: For this test adjuvant arthritis is induced according to the method of Pearson and Wood, "Arthr. Rheum."2, 440 (1959). Compounds of the invention, e.g. compounds of formula I, are active in this test against developing and established arthritis at dosages of from 5 to 30 mg/kg/day.

SMILES | ED50 ([1]; Test B, oral, temperature 2 h after dosing, compound A as cis (Z) isomer) [mg/kg] | indicated daily dosage relative to acetylsalicylic acid, anti-pyretic therapy ([1]; cis-isomer) | ED50 ([2]; Test C, oral, 50% of animals protected, compound A as cis (Z) isomer) [mg/kg] | indicated daily dosage relative to acetylsalicylic acid, analgesic therapy ([2]; cis-isomer) | ED50 ([3]; Test A, developing arthritis, compound A as cis/trans (Z,E) isomer mixture, read-out: Developing arthritis ED50) [mg/kg] | ED50 ([3]; Test A, developing arthritis, using cis (Z) isomer, read-out: Developing arthritis ED50) [mg/kg] | ED50 ([3]; Test A, established arthritis, compound A as cis/trans (Z,E) isomer mixture, read-out: Established arthritis ED50) [mg/kg] | ED50 ([3]; Test A, established arthritis, using cis (Z) isomer, read-out: Established arthritis ED50) [mg/kg] | indicated daily dosage relative to acetylsalicylic acid, anti-inflammatory therapy ([3]; pure cis-isomer) | ED50 ([1]; po, 2 h) [mg/kg] | ED50 ([2]; po) [mg/kg] | ED50 ([3]; read-out: Developing arthritis ED50) [mg/kg] | ED50 ([3]; read-out: Established arthritis ED50) [mg/kg]
COC1=Cc2ccccc2C(=CC(=O)O)c2ccsc21 [A, [10-methoxy-4H-benzo[4,5]cyclohepta[1,2-b]thiophen-4-ylidene]-acetic acid] | 22 | 1/7 | 7 | 1/12 | 15 | 8 | 15 | 16 | 1/15 |  |  |  | 
CC(=O)Oc1ccccc1C(=O)O [B, acetylsalicyclic acid, reference compound] |  |  |  |  |  |  |  |  |  | 161 | 90 | 140 | 240
